Laboratory results taken from ChEMBL document CHEMBL1158324, “Isolation, structure elucidation, and biological activity of the steroid oligoglycosides and polyhydroxysteroids from the Antarctic starfish Acodontaster conspicuus” (J Nat Prod, 1997).
Calls of active or inactive are those of the source. No cut-off for these calls is given here.

Columns and labels:
Assay type in all cases: functional, organism-based
Acodontaster conspicuus [1] = assay: Antimicrobial activity against Acodontaster conspicuus McM13.3 at 20 degC after 48 hrs by paper disk method
Acodontaster conspicuus [2] = assay: Antimicrobial activity against Acodontaster conspicuus McM32.2 at 20 degC after 48 hrs by paper disk method
Acodontaster conspicuus [3] = assay: Antimicrobial activity against Acodontaster conspicuus McM11.5 at 20 degC after 72 hrs by paper disk method
Acodontaster conspicuus [4] = assay: Antimicrobial activity against Acodontaster conspicuus McM18.1 at 20 degC after 48 hrs by paper disk method

Row | SMILES | Activity (Acodontaster conspicuus [1]) | Activity (Acodontaster conspicuus [2]) | Activity (Acodontaster conspicuus [3]) | Activity (Acodontaster conspicuus [4])
1 | CC(/C=C/[C@@H](C)[C@H]1C[C@@H](O)C2=C3C[C@H](O)C4C[C@@H](O)CC[C@]4(C)[C@H]3CC[C@@]21C)CO (some centres not stated) | Active |  |  | 
2 | CC(C)[C@@H](O)/C=C/[C@@H](C)[C@H]1C[C@@H](O)[C@@H]2[C@]1(C)CC[C@H]1[C@@]2(O)C[C@H](O)C2C[C@@H](O)CC[C@@]21C (some centres not stated) | Active | Active |  | 
3 | CC(C)[C@@H](CCO[C@@H]1OC[C@@H](O)[C@H](O)[C@H]1O[C@@H]1OC[C@@H](O)[C@H](O)[C@H]1O)CC[C@@H](C)[C@H]1C[C@@H](O)[C@@H]2[C@]1(C)CC[C@@H]1[C@@]3(C)CC[C@H](O)[C@H](O)[C@@H]3[C@@H](O)C[C@]12O | Active | Active |  | 
4 | CO[C@H]1[C@H](O[C@H]2[C@H](OC[C@@H](C)[C@H](C)/C=C/[C@@H](C)[C@H]3C[C@@H](O)C4=C5C[C@H](O)[C@H]6C[C@@H](O)CC[C@]6(C)[C@H]5CC[C@@]43C)OC[C@@H](O)[C@@H]2O)OC[C@@H](O)[C@@H]1O |  |  | Active | 
5 | CC(C)[C@@H](C)C(=O)C[C@@](C)(O)[C@H]1CC[C@H]2[C@@H]3C[C@H](O[C@@H]4O[C@H](C)[C@@H](O)[C@H](O[C@@H]5OC[C@@H](O[C@@H]6O[C@H](CO)[C@H](O)[C@H](O)[C@H]6O[C@@H]6O[C@H](C)[C@@H](O)[C@H](O)[C@H]6O)[C@H](O)[C@H]5O[C@H]5O[C@@H](C)[C@H](O)[C@@H](O)[C@@H]5O)[C@H]4O)[C@H]4C[C@@H](OS(=O)(=O)O)CC[C@]4(C)C3=CC[C@@]21C | inactive | inactive | inactive | inactive
6 | CO[C@H]1[C@H](O[C@H]2[C@H](OCC[C@H](CC[C@@H](C)[C@H]3C[C@@H](O)[C@@H]4[C@]3(C)CC[C@@H]3[C@@]5(C)CC[C@H](O)[C@H](O)[C@@H]5[C@@H](O)C[C@]34O)C(C)C)OC[C@@H](O)[C@@H]2O)OC[C@@H](O)[C@@H]1O | Active | Active |  | 
7 | CC(C)C[C@@H]1O[C@H]1[C@@](C)(O)[C@H]1CC[C@H]2[C@@H]3C[C@H](O[C@@H]4O[C@H](C)[C@@H](O)[C@H](O[C@@H]5OC[C@@H](O[C@@H]6O[C@H](CO)[C@H](O)[C@H](O)[C@H]6O[C@@H]6O[C@H](C)[C@@H](O)[C@H](O)[C@H]6O)[C@H](O)[C@H]5O[C@H]5O[C@@H](C)[C@H](O)[C@@H](O)[C@@H]5O)[C@H]4O)[C@H]4C[C@@H](OS(=O)(=O)O)CC[C@]4(C)C3=CC[C@]12C | inactive | inactive | inactive | inactive
8 | CC(C)/C(=C/CO[C@@H]1OC[C@@H](O)[C@H](O)[C@H]1O)CC[C@@H](C)[C@H]1C[C@@H](O)C2=C3C[C@H](O)[C@H]4C[C@@H](O)CC[C@]4(C)[C@H]3CC[C@@]21C | Active | Active |  | 
9 | CO[C@H]1[C@H](O[C@H]2[C@H](OC[C@@H](C)[C@H](C)/C=C/[C@@H](C)[C@H]3C[C@@H](O)[C@@H]4[C@]3(C)CC[C@@H]3[C@@]5(C)CC[C@H](O)[C@H](O)[C@@H]5[C@@H](O)C[C@]34O)OC[C@@H](O)[C@@H]2O)OC[C@@H](O)[C@@H]1O | Active | Active |  | 
10 | CC(C)CC(=O)C[C@@](C)(O)[C@H]1CC[C@H]2[C@@H]3C[C@H](O[C@@H]4O[C@H](C)[C@@H](O)[C@H](O[C@@H]5OC[C@@H](O[C@@H]6O[C@H](CO)[C@H](O)[C@H](O)[C@H]6O[C@@H]6O[C@H](C)[C@@H](O)[C@H](O)[C@H]6O)[C@H](O)[C@H]5O[C@H]5O[C@@H](C)[C@H](O)[C@@H](O)[C@@H]5O)[C@H]4O)[C@H]4C[C@@H](OS(=O)(=O)O)CC[C@]4(C)C3=CC[C@@]21C | inactive | inactive | inactive | inactive
11 | C=C(CC[C@@H](C)[C@H]1C[C@@H](O)[C@@H]2[C@]1(C)CC[C@@H]1[C@@]3(C)CC[C@H](O)[C@H](O)[C@@H]3[C@@H](O)C[C@]12O)C(C)CO[C@@H]1OC[C@@H](O)[C@H](O)[C@H]1O[C@@H]1OC[C@@H](O)[C@H](O)[C@H]1OC (some centres not stated) |  | Active |  | 
12 | C[C@H](/C=C/[C@@H](C)[C@H]1C[C@@H](O)C2=C3C[C@H](O)C4C[C@@H](O)CC[C@]4(C)[C@H]3CC[C@@]21C)[C@H](C)CO (some centres not stated) | Active | Active |  | 
